From patent publication US20150359802A1, “PARENTERAL PHARMACEUTICAL FORM WHICH RELEASES AROMATSE INHIBITOR AND GESTAGENS, FOR THE TREATMENT OF ENDOMETRIOSIS” (Bayer Intellectual Property GmbH, priority 2010, published 2015)
Entries after “also recorded” stand apart in the source; their conditions may differ. Like-named read-outs stand apart in the source and are kept apart here. Blank lines part the entries; values can stand above or below the compound they belong to.

Key:
[1] = test system: ovulation; details: cited from earlier work
[2] = test system: ovarian stimulation; details: applied orally; cited from earlier work
[3] = Plasma protein binding by equilibrium dialysis, human plasma; format: in vitro ADME; details: human, plasma, seven hours at 37° C., read-out: Plasma protein binding [free fraction, fu]
[4] = test system: plasma protein; assay: as above; format: in vitro ADME; details: seven hours at 37° C.
[5] = cited from earlier work
[6] = Estimation of IVR release rate and serum level for human application
Procedure: Subsequently, an estimation was made of the in vitro IVR release rate of an IVR for human application, which is necessary to achieve serum levels which led to a lowering of estradiol in the monkeys. […] The corresponding effective serum concentration in humans is estimated to be 9 μg/l, taking into account species-specific plasma protein binding, according to equation (1) below.
The mean in vivo release rate from the IVR which is necessary to achieve a plasma concentration of 9 μg/l in humans is calculated according to equation 2. For this equation, the plasma clearance of anastrozole in humans is required.

[7] = test system: systemic estrogen levels; details: 1 mg/day, post-menopausal women; cited from earlier work
[8] = test system: ovary; assay: IVR study in cynomolgus monkeys: ultrasound scans of the ovary; format: in vivo, cynomolgus monkey; details: for Ovarian cysts (ultrasound): cycle days 1-26
Description: (§1) This comprises, among other things, cycle length, hormone receptors, morphology, endocrine system and regulation of the pituitary-ovarian axis (Borghi, M. R., R. Niesvisky, et al. (1983). “Administration of agonistic and antagonistic analogues of LH-RH induce anovulation in Macaca fasicularis.” Contraception 27(6): 619-626. Satoru Oneda, T. I., Katsumi Hamana (1996). “Ovarian Response to Exogenous Gonadotropins in Infant Cynomolgus Monkeys” International Journal of Toxicology, 15(3): 194-204). The pharmacodynamic and pharmacokinetic effect of intravaginally administered dosages of the aromatase inhibitor anastrozole was studied over the duration of a menstrual cycle by inserting a vaginal ring (IVR) having three different release rates. Among other things, the influence on the pituitary-ovarian axis was studied by determining the hormones estradiol, FSH, progesterone (the blood collections required for this were carried out over the entire experimental period; on day 1, four collections [0 h, 1 h, 3 h, 6 h after insertion of the IVR]; 1 collection each on days 2 and 3; after this time point, further collections followed on every 3rd day) and by ultrasound scans of the ovary (2× per week). Hormone determination was carried out according to the instructions provided by the supplier (estradiol [Siemens/DPC], progesterone [Beckmann-Culter/DSL], FSH [SHG]). An IVR having an initial in vitro release of 0 μg/day (placebo, no anastrozole), 390 μg/day, 85 μg/day or 27 μg/day was inserted into five animals per group one to three days after the last day of menstruation. Animals having irregular cycles were excluded from the experiment.

[9] = Plasma protein binding by equilibrium dialysis, cynomolgus monkey plasma; format: in vitro ADME; details: cynomolgus monkey, plasma, seven hours at 37° C., read-out: Plasma protein binding [free fraction, fu]
[10] = test system: plasma protein; assay: as above; format: in vitro ADME; details: seven hours at 37° C.
[11] = in vivo; details: female, cynomolgus monkey, plasma, iv, 0.2 mg/kg
[12] = test system: pituitary-ovarian axis; assay: IVR study in cynomolgus monkeys: estradiol, FSH and progesterone levels; format: in vivo, cynomolgus monkey
Description: as §1

[13] = Plasma concentration of anastrozole after IVR administration and PK-based in vivo release; parameters: species or system female cynomolgus monkeys; details: in vitro release in buffer vs calculated in vivo release, primate experiment
Procedure: The concentration of anastrozole in plasma samples was quantitatively determined by means of liquid-liquid extraction with liquid chromatography coupled to tandem mass spectrometry (LC/ESI-MS/MS). The analyses were carried out on an Agilent 1200 and an AB Sciex Triple Quad 5500 in positive ionization mode. For this purpose, 100 μl were initially taken from each plasma sample, admixed with 300 μl of an aqueous solution containing any non-structurally-related compound as internal standard, and extracted with 1.3 ml of methyl tert-butyl ether on a Perkin Elmer Mass Prep Station. […] 5 μl of this were injected into the LC/MS/MS, the m/z transition 294 ([M+H]+)→225 was recorded, and the signal was integrated with the AB Sciex Software Analyst 1.5. The concentrations of the plasma samples were determined from the resulting areas with the aid of a calibration curve present in the same sequence (0, 0.0500 to 1000 nM in plasma, n=2). […]
The mean plasma concentration (Css) of anastrozole was calculated as the mean value of all measured concentrations per dose group from the day after insertion of the IVR up to the end of the experiment.
The mean in vivo release rates (Rin) from the IVR were subsequently calculated according to the equation: Rin=Css*CL (see table X). […]

[14] = IVR 27 μg/day initial in vitro release
[15] = IVR 85 μg/day initial in vitro release
[16] = IVR 390 μg/day initial in vitro release

Compound: C#C[C@]1(O)CC[C@H]2[C@@H]3CCC4=CCCC[C@@H]4[C@H]3CC[C@@]21C [Lynestrenol]
Ovulation inhibition dose ([1]; Neumann et al): 2000 μg/day p.o. | Ovulation inhibition dose ([1]; Taubert & Kuhl): 2000 μg/day p.o.

Compound: C[C@]12CCC(=O)C=C1[C@@H]1C[C@@H]1[C@H]1[C@@H]3[C@@H]4C[C@@H]4[C@@]4(CCC(=O)O4)[C@@]3(C)CC[C@@H]12 [Drospirenone]
Ovulation inhibition dose ([1]; Neumann et al): 2000 μg/day p.o.

Compound: C[C@]12CCC3=C4CCC(=O)C=C4CC[C@H]3[C@@H]1CC[C@@]2(O)CC#N [Dienogest]
Ovulation inhibition dose ([1]; Neumann et al): 1000 μg/day p.o.

Compound: C#C[C@]1(O)CC[C@H]2[C@@H]3CCC4=CC(=O)CC[C@@H]4[C@H]3CC[C@@]21C [Norethisterone]
Ovulation inhibition dose ([1]; Neumann et al): 500 μg/day p.o. | Ovulation inhibition dose ([1]; Taubert & Kuhl): 400 μg/day p.o.

Compound: N#Cc1ccc(C(c2ccc(C#N)cc2)n2cncn2)cc1 [Letrozole, letrozole]
oral dosage at which ovarian stimulation can occur [2]: 2.5 mg

Compound: C#C[C@]1(O)CC[C@H]2[C@@H]3CCC4=CCCC[C@@H]4[C@H]3C(=C)C[C@@]21CC [Desogestrel]
Ovulation inhibition dose ([1]; Neumann et al): 60 μg/day p.o. | Ovulation inhibition dose ([1]; Taubert & Kuhl): 60 μg/day p.o.

Compound: CC(=O)O[C@]1(C(C)=O)CC[C@H]2[C@@H]3C=C(Cl)C4=CC(=O)[C@@H]5C[C@@H]5[C@]4(C)[C@H]3CC[C@@]21C [Cyproterone acetate]
Ovulation inhibition dose ([1]; Neumann et al): 1000 μg/day p.o. | Ovulation inhibition dose ([1]; Taubert & Kuhl): 1000 μg/day p.o.

fraction unbound at 7 h [3]: 0.34 | Plasma protein binding [free fraction, fu] [4]: 52% | initial in vitro release rate, for humans ([6]; […]): about 350 μg per day | Calculated initial in vitro IVR release rate (in buffer) with a decreasing release rate ([6]; decrease 32% in 4 weeks, human dose): ≈350 μg/day/60 kg patient | corresponding effective serum concentration in humans ([6]; from monkey Css 5.9 μg/l, corrected for species-specific plasma protein binding): 9 µg/L | constant in vitro release rate in buffer, for humans ([6]; in vitro/in vivo correction factor 1.1): 270 µg/day | human in vivo release rate, kept constant ([6]; to achieve levels that lowered estradiol in the monkeys): 246 µg/day | Calculated constant in vitro IVR release rate (in buffer) ([6]; to maintain in humans plasma levels of the effective dose in cynomolgus monkeys): ≈270 μg/day/60 kg patient | Calculated constant in vivo IVR release rate in humans ([6]; to maintain plasma levels of the effective dose in cynomolgus monkeys): ≈250 μg/day/60 kg patient | Ovarian cysts (ultrasound) [8, 14]: None | Ovarian cysts (ultrasound) [8, 15]: None | Ovarian cysts (ultrasound) [8, 16]: None | formation of ovarian cysts ([8]; at the dosages used (27, 85, 390 μg/day)): no formation of ovarian cysts | fraction unbound at 7 h [9]: 0.52 | Plasma protein binding [free fraction, fu] [10]: 34% | clearance [11]: 9.67 mL/min/kg | in vitro/in vivo correction factor [13]: 1.1
Compound: CC(C)(C#N)c1cc(Cn2cncn2)cc(C(C)(C)C#N)c1 [Anastrozole, anastrozole]
CLpl (CL/F) ([5]; Human, oral administration): 0.33 mL/min/kg | oral bioavailability (F) ([5]; humans): approximately 1 | reduction of systemic estrogen levels [7]: more than 85% | oral dosage at which ovarian stimulation can occur [2]: 1 mg | estradiol levels during the follicular phase compared to the placebo group ([12]; 390 μg per day initial release, P value <0.0478): lowers the estradiol levels significantly; also recorded: significant fall during the follicular phase | E2 AUC (cycle days 1-26) [12, 14]: 4862 ± 1986 pmol/L | E2 AUC (follicular, cycle days 1-17) [12, 14]: 3854 ± 927.5 pmol/L/day | E2 AUC (luteal, cycle days 17-26) [12, 14]: 403.2 ± 169.7 pmol/L | FSH Mean level/day without preovulatory maximum [12, 14]: 5.52 ± 3.07 µg/L | Progesterone Mean level/day Follicular phase [12, 14]: 5.57 ± 5.11 nmol/L | Progesterone Mean level/day Luteal phase [12, 14]: 91.92 ± 52.78 nmol/L | E2 AUC (cycle days 1-26) [12, 15]: 4126 ± 2063 pmol/L | E2 AUC (follicular, cycle days 1-17) [12, 15]: 3235 ± 1101 pmol/L/day | E2 AUC (luteal, cycle days 17-26) [12, 15]: 605.1 ± 264.1 pmol/L | FSH Mean level/day without preovulatory maximum [12, 15]: 4.90 ± 2.58 µg/L | Progesterone Mean level/day Follicular phase [12, 15]: 6.58 ± 3.91 nmol/L | Progesterone Mean level/day Luteal phase [12, 15]: 60.02 ± 22.65 nmol/L | E2 AUC (cycle days 1-26) [12, 16]: 2784 ± 999.8 pmol/L | E2 AUC (follicular, cycle days 1-17) [12, 16]: 1978 ± 350.6 pmol/L/day | E2 AUC (luteal, cycle days 17-26) [12, 16]: 342.9 ± 135.2 pmol/L | FSH Mean level/day without preovulatory maximum [12, 16]: 4.83 ± 2.91 µg/L | Progesterone Mean level/day Follicular phase [12, 16]: 4.58 ± 2.64 nmol/L | Progesterone Mean level/day Luteal phase [12, 16]: 92.88 ± 55.50 nmol/L | counterregulation by the pituitary-ovarian axis ([12]; at the dosages used (27, 85, 390 μg/day), compared to placebo): fails to occur

Compound: C#C[C@]1(OC(C)=O)CC[C@H]2[C@@H]3CCC4=CC(=NO)CC[C@@H]4[C@H]3CC[C@@]21CC (mixture of isomers) [Norgestimate]
Ovulation inhibition dose ([1]; Neumann et al): 200 μg/day p.o. | Ovulation inhibition dose ([1]; Taubert & Kuhl): 200 μg/day p.o.

Compound: C#C[C@]1(OC(C)=O)CC[C@H]2[C@@H]3CCC4=CC(=O)CC[C@@H]4[C@H]3CC[C@@]21C [Norethisterone acetate]
Ovulation inhibition dose ([1]; Neumann et al): 500 μg/day p.o.

Compound: CC(=O)O[C@]1(C(C)=O)CC[C@H]2[C@@H]3C=C(Cl)C4=CC(=O)CC[C@]4(C)[C@H]3CC[C@@]21C [Chlormanidone acetate]
Ovulation inhibition dose ([1]; Neumann et al): 1500-2000 μg/day p.o. | Ovulation inhibition dose ([1]; Taubert & Kuhl): 1700 μg/day p.o.

Compound: C#C[C@]1(O)CC[C@H]2[C@@H]3CCC4=CC(=O)CC[C@@H]4[C@H]3C(=C)C[C@@]21CC [3-Keto-Desogestrel]
Ovulation inhibition dose ([1]; Taubert & Kuhl): 60 μg/day p.o.

Compound: CC(=O)O[C@]1(C(C)=O)CC[C@H]2[C@@H]3C[C@H](C)C4=CC(=O)CC[C@]4(C)[C@H]3CC[C@@]21C [Medroxyprogesterone acetate]
Ovulation inhibition dose ([1]; Neumann et al): 10 μg/day p.o.

Compound: C#C[C@]1(O)C=C[C@H]2[C@@H]3CCC4=CC(=O)CC[C@@H]4[C@H]3CC[C@@]21CC [Gestodene]
Ovulation inhibition dose ([1]; Neumann et al): 30 μg/day p.o. | Ovulation inhibition dose ([1]; Taubert & Kuhl): 30 μg/day p.o.
